Measurements as given in patent publication US4542137A, “Alkylaminodesoxy-1.4;3.6-dianhydrohexitol nitrates substituted by purine bases and pharmaceutical compositions” (priority 1980, dated 1985).
pIC50: −log10 of the molar value. Where two headings read alike, the source gives them in different places.

Tests used:
[1] = system: isolated guinea pig hearts; assay: coronary flowthrough-increasing effectiveness on isolated guinea pig hearts according to Langendorff; conditions: Cavia porcellus, 25 μg/ml in tyrode solution, Langendorff heart; for activation at 25 µg/mL: read-out: flowthrough (coronary), percentage change in comparison with the initial value
Method: After achieving the stationary state in the 30th minute, the hearts were each infused with 50 ml. tyrode solution with a content of test substance of, in each case, 25 μg./ml. Each test substance was tested on 3-6 hearts.
In each case, there was measured the inotropism, the flowthrough and the frequency, whereby the values given in Table I are average values of the percentage changes in comparison with the starting values.

[2] = system: isolated rat aorta preparations; assay: spasmolytic effectiveness on isolated rat aorta preparations (noradrenaline- and potassium chloride-induced contractions)
[3] = examination of acute toxicity, i.v., female NMRI-albino mice; assay type: in vivo; conditions: mouse, in vivo, iv, mice, 24 hours; read-out: Evaluated LD50-range
Method: (§1) . The compounds were injected to at least 3 animals per dose. If no animal had yet been died following to the highest dose which was administered, no more doses of substances were tested. In case of doubt, the examination was repeated with at least 3 more animals applying the same dose.
(§2) The rate of death within 24 hours after administration was observed.
(§3) In table IX, the determined rates of death as well as the LD50 -ranges evaluated therefrom are shown.

female NMRI-albino mice = assay: as above; assay type: in vivo; conditions: within 24 hours; for Frequency of death with an intravenous dose of 200 mg/kg: 200 mg/kg i.v.; for Frequency of death with an intravenous dose of 50 mg/kg: 50 mg/kg i.v.; for Frequency of death with an intravenous dose of 100 mg/kg: 100 mg/kg i.v.
Method: as §1, §2, §3

[4] = read-out: frequency, percentage change in comparison with the initial value
[5] = read-out: inotropism, percentage change in comparison with the initial value
[6] = read-out: ED50 for spasmolytic action, Noradrenaline spasm (50% inhibition)
[7] = read-out: ED50 for spasmolytic action, potassium chloride spasm (50% inhibition)

Compound	activation at 25 µg/mL [1] [%]	inhibition at 25 µg/mL [1, 4] [%]	inhibition at 25 µg/mL [1, 5] [%]	pIC50 [2, 6]	pIC50 [2, 7]	percent change from initial value at 25 µg/mL [1, 4] [%]	LD50 at 24 h [3] [mg/kg]	Frequency of death with an intravenous dose of 200 mg/kg (female NMRI-albino mice)	Frequency of death with an intravenous dose of 50 mg/kg (female NMRI-albino mice)	Frequency of death with an intravenous dose of 100 mg/kg (female NMRI-albino mice)
Cn1c(=O)c2c(ncn2CC(O)CN[C@H]2CO[C@H]3[C@@H]2OC[C@@H]3O[N+](=O)[O-])n(C)c1=O (stereo partly drawn) [Example 6, 5-(2-Hydroxy-3-theophyllin-7-ylpropyl)-amino-5-desoxy-1.4;3.6-dianhydro-L-iditol 2-nitrate]	53.3	-3.39	-4.5	5.95	4.74					
Cn1cnc2c1c(=O)n(CCCN[C@H]1CO[C@H]3[C@@H]1OC[C@@H]3O[N+](=O)[O-])c(=O)n2C [Example 7c, 5-[3-(3,7-Dimethylxanthin-1-yl)-propylamino]-5-desoxy-1.4;3.6-dianhydro-L-iditol 2-nitrate]	28.9		-10.5			0	> 200	0/6		
Cn1c(=O)c2c(ncn2CCCN[C@@H]2CO[C@H]3[C@@H]2OC[C@H]3O[N+](=O)[O-])n(C)c1=O [Example 12d, 5-(3-Theophyllin-7-ylpropyl)-amino-5-desoxy-1.4;3.6-dianhydro-D-mannitol 2-nitrate]							> 200	0/6		
Cn1c(=O)c2c(ncn2CCCN[C@@H]2CO[C@H]3[C@@H]2OC[C@@H]3O[N+](=O)[O-])n(C)c1=O [Example 10c, 5-(3-Theophyllin-7-ylpropyl)-amino-5-desoxy-1.4;3.6-dianhydro-D-glucitol 2-nitrate]	13	5.6	6.4				> 200	0/6		
Cn1c(=O)c2c(ncn2CCCCCCN[C@H]2CO[C@H]3[C@@H]2OC[C@@H]3O[N+](=O)[O-])n(C)c1=O [Example 5, 5-(6-Theophyllin-7-ylhexyl)-amino-5-desoxy-1.4;3.6-dianhydro-L-iditol 2-nitrate]	61.9	11.1	43.3	6.44	5.62		≥ 100	10/10	0/10	4/10
Cn1c(=O)c2c(ncn2CCCCCN[C@H]2CO[C@H]3[C@@H]2OC[C@@H]3O[N+](=O)[O-])n(C)c1=O [Example 4, 5-(5-Theophyllin-7-ylpentyl)-amino-5-desoxy-1.4;3.6-dianhydro-L-iditol 2-nitrate]	55.7	8.41	5.44	5.57	5.42		100 to 200	10/10		0/10
Cn1c(=O)c2c(ncn2CCCCN[C@H]2CO[C@H]3[C@@H]2OC[C@@H]3O[N+](=O)[O-])n(C)c1=O [Example 3, 5-(4-Theophyllin-7-ylbutyl)-amino-5-desoxy-1.4;3.6-dianhydro-L-iditol 2-nitrate]	36.4	4.8	3.82	5.59	5.44		> 200	0/6		
Cn1c(=O)c2c(ncn2CCN[C@H]2CO[C@H]3[C@@H]2OC[C@@H]3O[N+](=O)[O-])n(C)c1=O [Example 2, 5-(2-Theophyllin-7-ylethyl)-amino-5-desoxy-1.4;3.6-dianhydro-L-iditol 2-nitrate]	34.7	-3.5	4.6	5.38	4.52		≥ 200	1/3		0/3
CC(C)Cn1c(=O)n(C)c(=O)c2c1ncn2CCCN[C@H]1CO[C@H]2[C@@H]1OC[C@@H]2O[N+](=O)[O-] [Example 8c, 5-[3-(3-Isobutyl-1-methylxanthin-7-yl)-propylamino]-5-desoxy-1.4;3.6-dianhydro-L-iditol 2-nitrate]							100 to 200	11/13		0/3
Cn1c(=O)c2c(ncn2CCCN[C@H]2CO[C@H]3[C@@H]2OC[C@H]3O[N+](=O)[O-])n(C)c1=O [Example 11d, 2-(3-Theophyllin-7-ylpropyl)-amino-2-desoxy-1.4;3.6-dianhydro-D-glucitol 5-nitrate]							> 200	0/6		
Nc1ncnc2c1ncn2CCCCN[C@H]1CO[C@H]2[C@@H]1OC[C@@H]2O[N+](=O)[O-] [Example 15, 5-(4-Adenin-9-ylbutyl)-amino-5-desoxy-1.4;3.6-dianhydro-L-iditol 2-nitrate]	47.1	3.45	-3.85				< 50	3/3	3/3	3/3
Nc1ncnc2c1ncn2CCCCCCN[C@H]1CO[C@H]2[C@@H]1OC[C@@H]2O[N+](=O)[O-] [Example 17, 5-(6-Adenin-9-ylhexyl)-amino-5-desoxy-1.4;3.6-dianhydro-L-iditol 2-nitrate]	60.6	3.6	11.5				50 to 100	3/3	0/10	2/3
Nc1ncnc2c1ncn2CCCN[C@H]1CO[C@H]2[C@@H]1OC[C@@H]2O[N+](=O)[O-] [Example 14, 5-(3-Adenin-9-ylpropyl)-amino-5-desoxy-1.4;3.6-dianhydro-L-iditol 2-nitrate]	55.8		-3.8	5.85	4.36	0				
Nc1ncnc2c1ncn2CCN[C@H]1CO[C@H]2[C@@H]1OC[C@@H]2O[N+](=O)[O-] [Example 13, 5-(2-Adenin-9-ylethyl)-amino-5-desoxy-1.4;3.6-dianhydro-L-iditol 2-nitrate]	12.2		-2.3			0	> 200	0/6		
Nc1ncnc2c1ncn2CCCCCN[C@H]1CO[C@H]2[C@@H]1OC[C@@H]2O[N+](=O)[O-] [Example 16, 5-(5-Adenin-9-ylpentyl)-amino-5-desoxy-1.4;3.6-dianhydro-L-iditol 2-nitrate]	22.5	6.8	-6.5				100 to 200	10/10		0/10
